Reference: publication PMC7734618 (Bioorganic & medicinal chemistry, 2008)
Where a name gives a salt, the structure may show the parent alone.

Experiments:
Assay type in all cases: cell-based
in vitro = conditions: human, CEM cells (T-lymphoblastoid cell line)
[1] = Cytotoxicity in PHA-stimulated human PBM cells; conditions: uninfected PHA-stimulated PBM cells
[2] = Cytotoxicity in Vero cells; conditions: African green monkey, Vero cells (kidney)
HIV-1LAI = experiment: Anti-HIV activity against HIV-1LAI in human PBM cells; conditions: HIV-1LAI in PBM cells

Row | Structure (SMILES) | IC50 at 3 days (in vitro) [µM] | IC50 at 4 days [1] [µM] | IC50 at 2 days [2] [µM] | Anti-HIV activity compared with parent drug DOT (in words) (HIV-1LAI)
1 | Cc1cn([C@H]2CO[C@@H](COC(=O)C3CCCCC3)O2)c(=O)[nH]c1=O [Compound 8, Dioxolane thymine-5′-O-cyclohexanecarboxylic ester] | > 100 | > 100 |  | 
2 | Cc1cn([C@H]2CO[C@@H](COC(=O)CN)O2)c(=O)[nH]c1=O [Compound 11, Dioxolane thymine-5′-O-glycyl ester hydrochloride] | > 100 | > 100 |  | 
3 | CCCCC(=O)OC[C@@H]1OC[C@H](n2cc(C)c(=O)[nH]c2=O)O1 [Compound 2, Dioxolane thymine-5′-O-valeric ester] | > 100 | > 100 |  | 
4 | CC(=O)OC[C@@H]1OC[C@H](n2cc(C)c(=O)[nH]c2=O)O1 [Compound 1, Dioxolane thymine-5′-O-acetic ester] |  | > 100 |  | 
5 | CCCCCCCCCCCC(=O)OC[C@@H]1OC[C@H](n2cc(C)c(=O)[nH]c2=O)O1 [Compound 4, Dioxolane thymine-5′-O-dodecanoic ester] | > 100 | > 100 |  | 
6 | Cc1cn([C@H]2CO[C@@H](COC(=O)[C@H](C)N)O2)c(=O)[nH]c1=O [Compound 13, Dioxolane thymine-5′-O-l-alanyl ester hydrochloride] | > 100 | > 100 |  | 
7 | CCCCCCCC(=O)OC[C@@H]1OC[C@H](n2cc(C)c(=O)[nH]c2=O)O1 [Compound 3, Dioxolane thymine-5′-O-octanotic ester] | > 100 | > 100 |  | 
8 | Cc1cn([C@H]2CO[C@@H](COC(=O)[C@H](N)Cc3ccccc3)O2)c(=O)[nH]c1=O [Compound 15, Dioxolane thymine-5′-O-d-phenylalanyl ester hydrochloride] | > 100 | > 100 | > 100 | 
9 | Cc1cn([C@H]2CO[C@@H](COC(=O)[C@@H](N)CC(C)C)O2)c(=O)[nH]c1=O [Compound 18, Dioxolane thymine-5′-O-l-leucinyl ester hydrochloride] | > 100 | > 100 |  | 
10 | Cc1cn([C@H]2CO[C@@H](COCOC(=O)C(C)(C)C)O2)c(=O)[nH]c1=O [Compound 9, Dioxolane thymine-5′-O-pivaloyloxymethyl ether] | > 100 | > 100 |  | slightly reduced antiviral activity
11 | Cc1cn([C@H]2CO[C@@H](COC(=O)C(C)(C)C)O2)c(=O)[nH]c1=O [Compound 6, Dioxolane thymine-5′-O-pivalic ester] | > 100 | > 100 |  | 
12 | Cc1cn([C@H]2CO[C@@H](COC(=O)[C@@H](N)Cc3ccccc3)O2)c(=O)[nH]c1=O [Compound 14, Dioxolane thymine-5′-O-l-phenylalanyl ester hydrochloride] | > 100 | > 100 | > 100 | 
13 | Cc1cn([C@H]2CO[C@@H](COC(=O)C3CC3)O2)c(=O)[nH]c1=O [Compound 7, Dioxolane thymine-5′-O-cyclopropanecarboxylic ester] | > 100 | > 100 |  | 
14 | CCCCCCCCCCCCCCCC(=O)OC[C@@H]1OC[C@H](n2cc(C)c(=O)[nH]c2=O)O1 [Compound 5, Dioxolane thymine-5′-O-palmitic ester] | > 100 | > 100 |  | 
15 | Cc1cn([C@H]2CO[C@@H](COC(=O)[C@H](N)C(C)C)O2)c(=O)[nH]c1=O [Compound 17, Dioxolane thymine-5′-O-d-valyl ester hydrochloride] | > 100 | > 100 | > 100 | 
16 | Cc1cn([C@H]2CO[C@@H](COC(=O)[C@@H](N)C(C)C)O2)c(=O)[nH]c1=O [Compound 16, Dioxolane thymine-5′-O-l-valyl ester hydrochloride] | > 100 | > 100 | > 100 | 
